Experimental data published in patent US9006238B2, “Pyrazolo pyridine derivatives as NADPH oxidase inhibitors” (Genkyotex SA, priority 2008, dated 2015).

Target: T1, NOX (Homo sapiens, UniProt P04839)
T1 construct: HL60 differentiation to the neutrophil phenotype was triggered by adding Me2SO; endogenous in cells; host or cells: HL-60 cells differentiated with DMSO (1.25% v/v, 6 days) to the neutrophil phenotype
T1 sequence (P04839 1-570): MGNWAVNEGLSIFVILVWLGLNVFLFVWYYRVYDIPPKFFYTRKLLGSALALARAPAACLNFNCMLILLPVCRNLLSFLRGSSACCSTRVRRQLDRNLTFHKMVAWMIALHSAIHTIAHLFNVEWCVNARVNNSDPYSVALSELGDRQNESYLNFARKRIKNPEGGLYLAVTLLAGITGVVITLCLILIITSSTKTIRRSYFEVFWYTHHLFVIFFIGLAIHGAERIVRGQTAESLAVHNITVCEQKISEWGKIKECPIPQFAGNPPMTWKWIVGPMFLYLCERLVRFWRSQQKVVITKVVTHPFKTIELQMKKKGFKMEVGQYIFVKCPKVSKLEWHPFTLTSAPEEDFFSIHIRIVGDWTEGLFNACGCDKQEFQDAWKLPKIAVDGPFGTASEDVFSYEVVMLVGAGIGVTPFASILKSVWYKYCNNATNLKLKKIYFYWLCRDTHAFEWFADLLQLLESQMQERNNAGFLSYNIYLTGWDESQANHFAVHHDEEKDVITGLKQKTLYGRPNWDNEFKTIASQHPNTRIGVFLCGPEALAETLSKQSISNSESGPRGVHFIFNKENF
T1 sequence (P13498 1-195 partner): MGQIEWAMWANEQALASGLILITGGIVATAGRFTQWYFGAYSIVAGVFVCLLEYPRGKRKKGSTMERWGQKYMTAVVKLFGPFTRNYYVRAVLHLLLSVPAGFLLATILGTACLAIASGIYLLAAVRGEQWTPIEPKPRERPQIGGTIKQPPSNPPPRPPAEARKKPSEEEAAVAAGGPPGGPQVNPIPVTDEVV
Assay: Amplex Red measurement of extracellular hydrogen peroxide (NOX activity) using DMSO-differentiated HL60 cells
Assay type: cell-based
Conditions: DMSO-differentiated HL60 cells; for Inhibition (%) of NOX activity: test concentration not given
Method: The activity of the compounds according to the invention may be tested for their activity in the inhibition or reduction of formation of reactive oxygen species (ROS) from oxygen in cells. The activity of the compounds is tested in the following cell cultures by different techniques such as nitroblue tetrazolium, Amplex Red, Chemiluminescence (Luminol) and 2′,7′-dichlorodihydrofluorescein diacetate (H2DCF-DA) according to the protocols detailed below.
Human acute myeloid leukemia cell line HL-60 was cultured in RPMI 1640 (Invitrogen) supplemented with 10% heat-inactivated calf serum, 2 mM glutamine, 100 U/mL penicillin (Sigma), and 100 μg streptomycin (Sigma) at 37° C. under a humidified atmosphere of 5% CO2. HL60 differentiation to the neutrophil phenotype was triggered by adding Me2SO (final concentration 1.25% v/v for 6 days) to the culture medium.
Extracellular hydrogen peroxide was measured using Amplex UltraRed (Molecular Probes). Cells were trypsinized (1× Trypsin-EDTA), collected by centrifugation, and resuspended in HBSS supplemented with 1% glucose. Cells were seeded into black 96-well plates at a density of 50,000 cells in 200 μl testing buffer (HBSS 1% glucose containing 0.005 U/mL horseradish peroxidase (Roche) and 50 μM Amplex Red in the presence or absence of compounds according to the invention. As a control, DPI was included at a final concentration of 10 μM The plates were placed in the fluorescent Optima Fluorescent plate reader and kept at 37° C. during 20 min. Fluorescence was measured for […] with excitation and emission wavelengths of 544 nm and 590 nm respectively. NOX activities were expressed as % of the activity in control cells. Residual activity of DPI-treated cells was usually <10%.
The Table 2 below summarizes the percentage of inhibition of NOX activity as measured by Amplex Red using DMSO-differentiated HL60 cells as described above:
The Table 3 below summarizes the IC50 of NOX activity as measured by Amplex Red using DMSO-differentiated HL60 cells as described above: […]

| Compound | IC50 | Inhibition (%) of NOX activity |
| --- | --- | --- |
| Cn1[nH]c2cc(=O)n(CC3CN(Cc4ccccc4)CCO3)c(-c3ccc(Cl)cc3)c2c1=O (centres unmarked) [Compound 97, 5-[(4-benzylmorpholin-2-yl)methyl]-4-(4-chlorophenyl)-2-methyl-1H-pyrazolo[4,3-c] pyridine-3,6(2H,5H)-dione] | – | 89% |
| CC(=O)N1CCC(Cn2c(-c3ccc(Cl)cc3)c3c(=O)n(C)[nH]c3cc2=O)CC1 [Compound 98] | – | 92% |
| Cc1c2c(=O)n(C)[nH]c2cc(=O)n1C [Compound 5, 2,4,5-Trimethyl-1H-Pyrazolo[4,3-c]Pyridine-3,6(2H,5H)-Dione] | < 5 µM | 48% |
| Cn1[nH]c2cc(=O)n(CC3CNC(=O)C3)c(-c3ccc(Cl)cc3)c2c1=O (centres unmarked) [Compound 100, 4-(4-chlorophenyl)-2-methyl-5-[(5-oxopyrrolidin-3-yl)methyl]-1H-pyrazolo[4,3-c] pyridine-3,6(2H,5H)-dione] | – | 90% |
| Cc1c2c(=O)n(Cc3ccc(Cl)cc3)[nH]c2cc(=O)n1Cc1ccccn1 [Compound 2, 2-(4-Chlorobenzyl)-4-Methyl-5-(Pyridin-2-Ylmethyl)-1H-Pyrazolo[4,3-c]Pyridine-3,6(2H,5H)-Dione] | < 5 µM | 61% |
| Cc1c2c(=O)n(C)[nH]c2cc(=O)n1Cc1ccco1 [Compound 6, 5-(Furan-2-Ylmethyl)-2,4-Dimethyl-1H-Pyrazolo[4,3-c]Pyridine-3,6(2H,5H)-Dione] | < 5 µM | 74% |
| Cc1c2c(=O)n(CC(C)C)[nH]c2cc(=O)n1Cc1cccnc1 [Compound 44, 4-methyl-2-(2-methylpropyl)-5-(pyridin-3-ylmethyl)-1H-pyrazolo[4,3-c]pyridine-3,6 (2H,5H)-dione] | < 5 µM | 78% |
| Cc1c2c(=O)n(CCc3ccccc3)[nH]c2cc(=O)n1Cc1ccccc1CN1CCOCC1 [Compound 30, 4-methyl-5-[2-(morpholin-4-ylmethyl)benzyl]-2-(2-phenylethyl)-1H-pyrazolo[4,3-c]pyridine-3,6(2H,5H)-dione] | < 5 µM | 77% |
| Cn1c(COc2ccc(F)cc2)c2c(=O)n(CCN3CCOCC3)[nH]c2cc1=O [Compound 86, 4-[(4-fluorophenoxy)methyl]-5-methyl-2-(2-morpholin-4-ylethyl)-1H-pyrazolo[4,3-c] pyridine-3,6(2H,5H)-dione] | < 5 µM | 87% |
| Cc1c2c(=O)n(C)[nH]c2cc(=O)n1CCN1CCOCC1 [Compound 16, 2,4-Dimethyl-5-(2-Morpholin-4-Ylethyl)-1H-Pyrazolo[4,3-c]Pyridine-3,6(2H,5H)-Dione] | < 5 µM | 74% |
| COCCn1[nH]c2cc(=O)n(CCOC)c(-c3ccc(Cl)cc3)c2c1=O [Compound 58, 4-(4-chlorophenyl)-2,5-bis(2-methoxyethyl)-1H-pyrazolo[4,3-c]pyridine-3,6 (2H,5H)-dione] | < 5 µM | 95% |
| Cc1c2c(=O)n(C3CCCCC3)[nH]c2cc(=O)n1Cc1ccccc1CN1CCOCC1 [Compound 13, 2-Cyclohexyl-4-Methyl-5-[2-(Morpholin-4-Ylmethyl)Benzyl]-1H-Pyrazolo[4,3-c]Pyridine-3,6(2H,5H)-Dione] | < 5 µM | 56% |
| COCCn1[nH]c2cc(=O)n(-c3cccc(NC(C)=O)c3)c(C)c2c1=O [Compound 19, N-{3-[2-(2-methoxyethyl)-4-methyl-3,6-dioxo-1,2,3,6-tetrahydro-5H-pyrazolo[4,3-c]pyridin-5-yl]phenyl} acetamide] | < 5 µM | 73% |
| COc1cccc(Cc2c3c(=O)n(Cc4ccccc4)[nH]c3cc(=O)n2Cc2ccccn2)c1 [Compound 21, 2-benzyl-4-(3-methoxybenzyl)-5-(pyridin-2-ylmethyl)-1H-pyrazolo[4,3-c] pyridine-3,6(2H,5H)-dione] | < 5 µM | 74% |
| Cc1c2c(=O)n(CCN3CCOCC3)[nH]c2cc(=O)n1Cc1ccc(Cl)cc1 [Compound 10, 5-(4-Chlorobenzyl)-4-Methyl-2-(2-Morpholin-4-Ylethyl)-1H-Pyrazolo[4,3-c]Pyridine-3,6(2H,5H)-Dione] | < 5 µM | 77% |

The remaining lines, values ahead:

| IC50 | Inhibition (%) of NOX activity | Compound |
| --- | --- | --- |
| < 5 µM | 63% | Cc1c2c(=O)n(Cc3ccccc3)[nH]c2cc(=O)n1-c1cccc(OC(F)(F)F)c1 [Compound 3, 2-Benzyl-4-Methyl-5-[3-(Trifluoromethoxy)Phenyl]-1H-Pyrazolo[4,3-c]Pyridine-3,6(2H,5H)-Dione] |
| < 5 µM | 75% | COCCn1[nH]c2cc(=O)n(Cc3ccccc3CN3CCOCC3)c(C)c2c1=O [Compound 18, 2-(2-methoxyethyl)-4-methyl-5-[2-(morpholin-4ylmethyl)benzyl]-1H-pyrazolo[4,3-c]pyridine-3,6(2H,5H)-dione] |
| < 5 µM | 86% | CCOCCCn1c(COCc2ccccc2)c2c(=O)n(CCN3CCOCC3)[nH]c2cc1=O [Compound 89, 4-[(benzyloxy)methyl]-5-(3-ethoxypropyl)-2-(2-morpholin-4-ylethyl)-1H-pyrazolo[4,3-c]pyridine-3,6 (2H,5H)-dione] |
| < 5 µM | 72% | COCCn1[nH]c2cc(=O)n(CCc3ccccn3)c(C)c2c1=O [Compound 15, 2-(2-Methoxyethyl)-4-Methyl-5-(2-Pyridin-2-Ylethyl)-1H-Pyrazolo[4,3-c]Pyridine-3,6(2H,5H)-Dione] |
| < 5 µM | 72% | COCCn1[nH]c2cc(=O)n(CC(=O)N3CCN(Cc4ccccc4)CC3)c(C)c2c1=O [Compound 35, 5-[2-(4-benzylpiperazin-1-yl)-2-oxoethyl]-2-(2-methoxyethyl)-4-methyl-1H-pyrazolo [4,3-c]pyridine-3,6(2H,5H)-dione] |
| < 5 µM | 79% | CCCCc1c2c(=O)n(C)[nH]c2cc(=O)n1Cc1ccc(Cl)cc1 [Compound 8, 4-Butyl-5-(4-Chlorobenzyl)-2-Methyl-1H-Pyrazolo[4,3-c]Pyridine-3,6(2H,5H)-Dione] |
| < 5 µM | 89% | COc1cccc(Cn2c(C)c3c(=O)n(CCN4CCOCC4)[nH]c3cc2=O)c1 [Compound 83, 5-(3-methoxybenzyl)-4-methyl-2-(2-morpholin-4-ylethyl)-1H-pyrazolo[4,3-c] pyridine-3,6(2H,5H)-dione] |
| < 5 µM | 79% | Cc1c2c(=O)n(CCOc3ccc(Cl)cc3)[nH]c2cc(=O)n1Cc1ccccn1 [Compound 24, 2-[2-(4-chlorophenoxy)ethyl] 4-methyl-5-(pyridin-2-ylmethyl)-1H-pyrazolo[4,3-c] pyridine-3,6(2H,5H)-dione] |
| < 5 µM | 65% | Cc1c2c(=O)n(C)[nH]c2cc(=O)n1Cc1ccccn1 [Compound 4, 2,4-Dimethyl-5-(Pyridin-2-Ylmethyl)-1H-Pyrazolo[4,3-c]Pyridine-3,6(2H,5H)-Dione] |
| < 5 µM | 91% | Cc1c2c(=O)n(CC(C)C)[nH]c2cc(=O)n1C1CCc2ccccc21 (centres unmarked) [Compound 48, 5-(2,3-dihydro-1H-inden-1-yl)-4-methyl-2-(2-methylpropyl)-1H-pyrazolo[4,3-c] pyridine-3,6(2H,5H)-dione] |
